The values below come from publication PMC5997408 (Chemical Research in Toxicology, 2017).

The target in series [1] is T1, NQO2 (Homo sapiens, UniProt P16083).
T1 sequence (P16083 1-231): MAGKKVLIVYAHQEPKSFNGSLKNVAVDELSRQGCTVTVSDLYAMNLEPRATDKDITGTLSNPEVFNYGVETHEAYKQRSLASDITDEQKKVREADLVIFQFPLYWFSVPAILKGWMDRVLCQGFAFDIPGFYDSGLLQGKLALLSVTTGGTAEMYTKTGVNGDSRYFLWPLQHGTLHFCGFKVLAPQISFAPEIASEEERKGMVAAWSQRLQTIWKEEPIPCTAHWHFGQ
As to the kind of experiment: Inhibition of recombinant NQO2, menadione as substrate with BNAH. It counts as biochemical.

The target of another series is NQO1 (Homo sapiens, UniProt P15559). In words: Inhibition of recombinant NQO1, DCPIP reduction. It counts as biochemical.
Sequence of NQO1 (P15559 whole entry): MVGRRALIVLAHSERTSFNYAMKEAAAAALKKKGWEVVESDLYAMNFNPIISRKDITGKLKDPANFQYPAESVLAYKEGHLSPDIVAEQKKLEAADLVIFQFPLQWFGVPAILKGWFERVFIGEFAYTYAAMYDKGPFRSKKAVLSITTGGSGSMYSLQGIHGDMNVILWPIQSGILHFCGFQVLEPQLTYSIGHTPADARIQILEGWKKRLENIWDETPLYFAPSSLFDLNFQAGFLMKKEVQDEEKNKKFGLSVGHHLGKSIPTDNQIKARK
Series [2] deals with T1, NQO2. In words: Enzyme kinetics of DCPIP reduction by NQO2. The class given is biochemical. The note with it: 50 nM NQO2, 100 µM BNAH.
Series [3] addresses T1, NQO2. As to the kind of experiment: Inhibition of recombinant NQO2, MTT reduction with BNAH. It counts as biochemical.
Series [4] has as its target T1, NQO2. The settings on record: 0.25 μM NQO2, tacrine 0, 5, 10, or 20 μM, 50 μM quinone imine.
The conditions of series [5]: cited from earlier work.
The target in series [6] is T1, NQO2. As to the kind of experiment: Inhibition of recombinant NQO2, DCPIP reduction with BNAH. It counts as biochemical.
The subject of another series is CYP. The settings on record: up to 25 μM of tacrine, all four microsomal-activated drugs (data not shown).

Turning to `CC(=O)Nc1ccc(O)cc1` [Acetaminophen, acetaminophen], the “inhibition of NQO2 activity” value on NQO2 [1] (up to 1 mM) is on record as “did not inhibit”. In addition, the “inhibition of NQO1 activity” value at NQO1 (up to 1 mM) is reported as “did not inhibit”.
Broadly, the Km is the substrate concentration at which the rate is half of its maximum. Consider `O=C1C(Cl)=CC(=Nc2ccc(O)cc2)C=C1Cl` [DCPIP, 2,6-dichlorophenolindophenol], for which, on NQO2 [2], the Michaelis constant (Km) was found to be 25 µM.
A word on the Ki: it is the equilibrium dissociation constant of an inhibitor or competing ligand from its target. Consider `O=C(O)Cc1ccccc1Nc1c(Cl)cccc1Cl` [diclofenac], for which, on NQO1, the Ki turned out to be 13 µM.
With `Cc1cccc(Nc2ccccc2C(=O)O)c1C` [mefenamic acid], the inhibition constant (Ki) at NQO2 [1] was 66 µM; on NQO1, 40 µM.
Regarding `Nc1c2c(nc3ccccc13)CCCC2` [tacrine], the inhibitory constant (Ki) was 15 ± 1 µM on NQO2 [3]; 3 to 15 µM at NQO2 [6] (Ki value, range over DCPIP and MTT as substrate); 3 ± 1 µM at NQO2 [6] (Ki, recombinant NQO2, substrate DCPIP (25 μM), 100 μM BNAH, mean ± SD (n = 3)); 193 ± 1 µM at NQO1. For the same molecule, the “inhibition of NQO2-mediated reduction of synthetic amodiaquine quinone imine” value against NQO2 [4] is listed as “concentration-dependent inhibition”. For the same molecule, the “plasma concentration of tacrine in humans” value in series [5] is listed as “around 0.04 μM”. For the same molecule, the “Ki fold lower than found for NQO2 inhibition by resveratrol” value at NQO2 [6] (substrate DCPIP) turned out to be 9 fold. In addition, at NQO2 [6] (substrate DCPIP), the “Ki for NQO2 fold lower compared to the Ki for NQO1” value came to 64 fold. Besides, the “effect on CYP metabolism” value in the series with CYP was “no effect”.
